# Results as given in patent US20160106747A1, “TREATING POSTOPERATIVE MECHANICAL STRESS WITH AN ECTOINE” (Bitop AG, priority 2008, published 2016).
# “Also recorded” adds a separate entry of the source.
# Assays:
# [1] = test system: rats with TNBS-induced enteritis; assay: Enteritis induced in rats with trinitrobenzol sulfonic acid (TNBS), oral ectoine; format: in vivo
# Procedure: For the purpose of closer investigation an animal model involving rats was prepared to induce enteritis by administering 10 mg/kg of trinitrobenzol sulfonic acid in 50% ethanol using a light ether anesthesia. Lesions developed which were examined macroscopically four days later. Ectoine was administered orally in various doses (30 to 300 mg/kg) for one week before the rats were given TNBS and four days thereafter.
# [2] = test system: Small intestine segments of rats; assay: Cold ischemic storage (18 h, 4° C.) of rat small intestine segments in POLYSOL with or without ectoine, then in vitro reperfusion; conditions: for LDH liberation: ectoine (5 mg/kg) added to POLYSOL, 18 h at 4° C.
# Procedure: Small intestine segments of rats were removed under standard conditions and immediately irrigated with a cold common salt solution and subsequently with a POLYSOL solution (supplied by Doorzand Medical Innovations, Amsterdam/NL). The small intestine segments removed were kept ischemically in 50 ml of nutrient solution at 4° C. for 18 hours; in half of these cases ectoine (5 mg/kg) was added to the POLYSOL solution. Following this storage time at 4° C. reperfusion of the small intestine segments took place in vitro at 37° C. using a modified KHB medium (5% Dextran 78, 0.95% KHB, 0.37 g/L CaCl2, 2 g/L glucose, 0.6 g/L dexamethasone, 70 mg/L atropine and 0.21% sodium bicarbonate). For oxygen supply purposes a mixture of 95% O2 and 5% CO2 was used. The partial pressure of the oxygen was constantly kept at more than 500 mm/hg. When reperfusion had been completed all tissue samples were deep-frozen at −80° C. in liquid nitrogen and examined to ascertain their condition, the lactate dehydrogenase (LDH) liberation and nitrite liberation as a measure of NO. Generally speaking, the formation of NOx is an indicator for (oxidative) stress to which a tissue sample is subjected.
structure (smiles),measurement,setting,value
"CC1=N[C@H](C(=O)O)CCN1 [ectoine, (4S)-2-methyl-1,4,5,6-tetrahydropyrimidine-4-carboxylic acid]",extent of the lesions (macroscopic examination),"[1]; TNBS 10 mg/kg in 50% ethanol, ectoine oral 30 to 300 mg/kg for one week before TNBS and four days thereafter, lesions examined four days later",capable of alleviating the extent of the lesions
same,histopathological examination of the large intestine,[1]; TNBS enteritis,protective effect of ectoine could be confirmed
same,glutathione level in the large intestine,"[1]; TNBS enteritis, oral ectoine",caused the glutathione level in the large intestine to go down
same,myeloperoxidase activity,"[1]; TNBS enteritis, oral ectoine",prevented changes of the myeloperoxidase activity
same,"level of mediators (IKAM-1, DNFα, IL-1β, IL-10, LTB4, PGE2)","[1]; in the blood and in the tissue of the large intestine, TNBS enteritis",prevented changes of the level of various mediators
same,dose giving the maximum effect on lesions,"[1]; oral, doses of 30 to 300 mg/kg tested",100 mg/kg
same,effect compared with reference active agent sulfasalazine,"[1]; sulfasalazine 300 mg/kg as reference, TNBS enteritis",comparable to that of sulfasalazine
same,LDH liberation,[2]; after 15 min reperfusion,8.8+/−3.42 U/I
same,LDH liberation,[2]; after 30 min reperfusion,25.4+/−8.2 U/I
same,NOx− formation,[2]; ectoine-doped POLYSOL samples after reperfusion,0.325 ± 1.05 mmol/L
same,condition of the microvilli (microscopic examination),"[2]; tissue samples after 30-minute reperfusion, compared with samples in POLYSOL only",much better condition; also recorded: considerably improved condition of the microvilli
